We go through four compounds from patent US20140080903A1, “APPLICATION OF ALPHA-MANGOSTIN IN PREPARATION OF MEDICAMENTS FOR ALZHEIMER'S DISEASE” (BOMAI LIMITED, priority 2011, published 2014).

The target of one assay is T1, Aβ (Homo sapiens, UniProt P05067).
T1 construct: purchased Sigma-Aldrich Corporation (China)
Nature of the assay: Thioflavin-T fluorescence kinetics of Aβ aggregation. Conditions: inhibitor:Aβ 1:1, 37° C.; for incubation time at which Aβ enters into accumulation: Aβ itself 4 hours. In kind it is biochemical. Here is the method: Resveratrol, Curcumin and Propidium Iodide are the reported inhibitors on Aβ aggregation.
1 mg Aβ was dissolved in 500 μL HFIP, and put at room temperature for 120 minutes with intermittent shaking Then HFIP was dried by high pure nitrogen blowing and 100 μL DMSO was added to prepare an Aβ stock of 2.3 mM, which was stored at −20° C. DMSO was employed to dilute Aβ stock and 2 μL diluted solution was added to 16 μL PBS (0.215M, pH 8.0), which made a solution of Aβ at […], to which 2 μL α-Mangostin (25 μM) or other inhibitors, and blank solvent was added. Followed with incubation for 30 minutes, the mixture was added 80 μL Thioflavin-T(10 μM)/Glycine-NaOH (50 mM, pH8.5) and transferred to microplate for fluorescence intensity measurement. The parameters for measurement was set up as follow: instrument temperature of 37° C., shaking frequency of 240 rpm, radius of […], excitation wavelength of 446 nm, emission wavelength of 485 nm, bandwidth of 5 nm, and detection frequent of every 30 minute. Fluorescence intensity was recorded and statistically analyzed.

The subject of the next assay is SAM-P8 mice. Nature of the assay: Morris water maze test in SAM-P8 mice. To be noted: for distance: mid-dose group. It counts as in vivo. Here is the method:
Female SAM-P8 mice of 8-month old were employed as the model animal in the invention. All of the mice experimental procedures strictly followed the Guide for the Care and Use of Laboratory Animals as adopted and promulgated by the National Institutes of Health, USA, including sterile rearing environment, temperature controlled between 23° C. and 25° C., humidity controlled at 55±5%, and an interval of twelve hours light.
The concentration and dose of α-Mangostin applied in the experiment were adjusted according to the different animal models. In molecular experiments, α-Mangostin was employed to calibrate the concentration of Aβ, prepared with the unit of molar concentration, and compared with the known Aβ aggregation inhibitor. In cellular experiments, α-Mangostin was also prepared with the unit of molar concentration, and provided in screening from the concentration of 50 pmol/L to 500nmol/L. In animal experiments, following the established practice, α-Mangostin was prepared with the unit of weight/animal weight, provided dosage range across three orders of magnitude of low dose (1 μg/kg), mid dose (10 μg/kg), high dose (100 μg/kg), and administrated orally (O.P., Solid granules).
SAM-P8 mice were weight and divided into five groups randomly, including the model group, low-dose (1 μg/kg) , mid-dose (10 μg/kg) , high-dose ([…]) groups and positive control group treated with resveratrol (10 mg/kg). SAM-R1 mice were used as normal control. Reagents were mixed in food and applied to mice from the 3rd day after grouping (enter 6 months age) to the end of the test. Normal control group and model group were administrated with the same amount of food.
Morris water maze test was carried out when SAM-P8 mice entered the age of 8 months. Water temperature in the experiment was controlled at 22±0.5° C. Mice were put into water with their faces towards the wall and backs towards water. The computer started automatically to record the trace and time (escape latency) of mice seeking the platform within 100 seconds. […] The tests were carried out twice every day, with an interval of 6 hours, and continued for 3 days. After place navigation test, the platform was removed. Mice were placed into water at a certain place of entry. The first time those mice reached the platform and the times that mice across the platform were recorded.

The next assay deals with primary neuronal cells. Nature of the assay: high content assay of neuroprotective effect against Aβ oligomer. It counts as cell-based, SD rat. To be noted: 50 nM α-Mangostin, 1 μM Aβ oligomer.
A further assay has as its target T2, Aβ oligomer (Homo sapiens, UniProt P05067).
T2 construct: purchased Sigma-Aldrich Corporation (China)
Nature of the assay: ELISA determination of Aβ oligomer (6E10/A11). It counts as biochemical. The procedure:
1 mg Aβ was dissolved in 500 μL HFIP at room temperature, of which 100 μL was transferred into a clean centrifuge tube (1.5 mL), where 900 μL sterile deionized water was added. Followed with centrifugation, the supernatant was moved to another clean centrifuge tube (1.5 mL) and HFIP was dried with high pure nitrogen blowing. Then the solution was stirred at 500 rpm for 48 hours at 22° C., using a micro stir bar, to get the solution of Aβ oligomer (1 μM). In inhibition experiment, α-Mangostin was added into the Aβ oligomer solution to obtain the final concentrations of 5 μM, 2 μM, 1 μM, 0.5 μM and 0.2 μM, respectively, and followed with another 12 hours stirring at 500 rpm and 22° C.α-Mangostin can also be added before stirring with Aβ oligomer for 12 hours.
The incubated solution was applied into the 96-well microplate coated with 100 μL monoclonal anti-Aβ antibody (6E10). After incubation for 1 hour at 37° C., the wells were washed 3 times with washing buffer and 100 μL Oligomer-specific antibody (A11) was applied. After 5 times washing, 100 μL HRP-conjugated Goat anti-Rabbit IgG was applied. After another 5 times washing and 15 minutes colour developing, the optical density was recorded and statistically analyzed with plate reader.

The target of the next assay is Histamine H1-receptor (Homo sapiens, UniProt P35367). To be noted: generally; cited from earlier work.
Histamine H1-receptor, sequence (P35367 whole entry, species assumed): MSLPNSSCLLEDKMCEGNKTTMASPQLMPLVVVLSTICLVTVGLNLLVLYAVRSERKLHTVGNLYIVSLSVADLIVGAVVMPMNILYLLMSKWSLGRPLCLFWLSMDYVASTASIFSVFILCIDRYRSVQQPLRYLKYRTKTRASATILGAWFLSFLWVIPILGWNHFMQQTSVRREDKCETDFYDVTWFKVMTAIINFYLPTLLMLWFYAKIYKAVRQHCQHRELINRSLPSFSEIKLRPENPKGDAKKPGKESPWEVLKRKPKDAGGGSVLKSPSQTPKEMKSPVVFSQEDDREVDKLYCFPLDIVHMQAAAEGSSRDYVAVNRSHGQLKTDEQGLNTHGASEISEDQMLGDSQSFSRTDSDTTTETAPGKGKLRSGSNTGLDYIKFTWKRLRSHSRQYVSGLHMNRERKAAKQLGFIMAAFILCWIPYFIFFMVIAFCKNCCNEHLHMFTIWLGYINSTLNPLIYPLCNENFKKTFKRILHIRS
Setting [1] is: 5 μM α-Mangostin, mole ratio to Aβ oligomer 5:1.

Each structure is given as a SMILES string. Like-named read-outs stand apart in the source and are kept apart here.

T2 sequence (P05067 672-711 limits assumed): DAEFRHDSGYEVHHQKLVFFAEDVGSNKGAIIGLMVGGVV
T1 sequence (P05067 672-711 limits assumed): as above
Protocol for primary neuronal cells: Mammalian neurons in the experiment were prepared from embryonic day 15 SD rat embryos. A medium specific for neurons was employed, including neurobasal, 2% B27 and 1% glutamine that were all commercial and used following the instructions of the manufacturer.
Embryonic day 15 SD rats are etherized and embryos were collected to a sterile dish with an anatomic buffer. Heads of the embryos were cut to a precooling dish with an anatomic buffer. A pair of straight forceps were inserted through eyes to fix the head, and another pincett was inserted along the head sagittal suture. The mening and skull were torn from front to back and to collect the brain. The hippocampus was peeled to the anatomic buffer in a precooling dish. The hippocampus was dissected by scissors disinfected with 75% alcohol. The minced tissues were collected into a marked 15 ml centrifuge tube and let them naturally precipitate to the bottom of the tube. The supernatant was discarded, and 2 mL 0.05% Trypsin was added. The tube was flipped several times and let it incubate for 5 minutes at 37° C. (shake evenly every two minutes). […]
The live cell dye stock in CELLOMICS ® Multiparameter Cytotoxicity 2 Kit was diluted to its working concentration. […] The fluorescence intensity was measured with high content plate reader and analyzed by the software of Cell Health Profiling Bio Application.

On to `COc1cc(/C=C/C(=O)CC(=O)/C=C/c2ccc(O)c(OC)c2)ccc1O` [curcumin], for which the “incubation time at which Aβ enters into plateau” value at Aβ came out at 15 h.
With `CC[N+](C)(CC)CCC[n+]1c(-c2ccccc2)c2cc(N)ccc2c2ccc(N)cc21.[I-].[I-]` [propidium iodide], on Aβ, the “incubation time at which Aβ enters into plateau” value is 10 h and the “incubation time at which Aβ enters into accumulation” value turned out to be 6 h. In addition, the “maximum fluorescence intensity compared with Aβ incubated itself” value at Aβ (within 24 hours) amounted to 10%.
`Oc1ccc(C=Cc2cc(O)cc(O)c2)cc1` [resveratrol, reference compound]: in the assay on SAM-P8 mice (from day 3, resveratrol 10 mg/kg positive control), the “escape latency and distance compared with model group” value is on record as “notably decreased”. Moreover, the “incubation time at which Aβ enters into plateau” value on Aβ was found to be 15 h.
In the assay on primary neuronal cells (model 70.25±6.97%), `COc1c(O)cc2oc3cc(O)c(CC=C(C)C)c(O)c3c(=O)c2c1CC=C(C)C` [α-Mangostin] registered a mitochondrial membrane potential of 105.25±5.84%. Also, in the assay with primary neuronal cells (model 173.75±6.82%), the “cell membrane permeability of neuronal cells” value is 107.75±9.39%. The “formation of Aβ oligomer inhibited to” value on Aβ oligomer (setting [1]) is on record as 14.15±2.86%. Also, the “formed Aβ oligomer disaggregated to” value at Aβ oligomer (setting [1]) was 39.58±3.25%. In addition, the IC50 is 1590 ± 820 nM at Aβ oligomer (read-out: IC50 of disaggregation of formed Aβ oligomer) and 1090 ± 540 nM at Aβ oligomer (read-out: IC50 of inhibition on Aβ oligomer formation). Further, the escape latency was found to be 46.16 ± 5.51 s in the assay on SAM-P8 mice (day 2, mid-dose group 10 m/kg, oral in food, model 72.17±10.09 s); 40.02 ± 4.16 s with SAM-P8 mice (from day 3, first value, mid-dose group 10 μg/kg, model 55.66±5.51 s); 19.05 ± 3.27 s with SAM-P8 mice (from day 3, second value, mid-dose group 10 μg/kg, model 39.93±4.12 s). Moreover, the distance with SAM-P8 mice (from day 3, first value, model 773.06±65.54) came to 438.78±46.02 cm; in the assay with SAM-P8 mice (from day 3, second value, model 543.13±56.72), 223.15±31.29 cm. The “working concentration as Histamine H1-receptor antagonist” value at Histamine H1-receptor is given as “higher than 10^−6 mol/L”. For the same compound, the “inhibition of Aβ aggregation” value on Aβ (within 24 hours) is “almost completely inhibited”. Further, the “incubation time at which Aβ enters into accumulation” value at Aβ was “no accumulation phase appeared within 24 hours”.
